Data taken from ChEMBL document CHEMBL5500418, “Structure-Activity Study on Substituted, Core-Extended, and Dyad Naphthalene Diimide G-Quadruplex Ligands Leading to Potent Antitrypanosomal Agents” (J Med Chem, 2024).

What was measured:
[1] = Selectivity index, ratio of IC50 for human MRC5 to IC50 for Leishmania major measured after 72 hrs by MTT assay; assay type: toxicity; settings: MRC5 cells, read-out: Ratio IC50
[2] = Cytotoxicity against human MRC5 cells incubated for 72 hrs by alamar blue staining based assay; assay type: toxicity, cell-based
Trypanosoma brucei [3] = assay: Antitrypanosomal activity against bloodstream-stage Trypanosoma brucei measured after 72 hrs by alamar blue assay; assay type: functional, organism-based
Quadruplex DNA [4] = assay: Stabilization of Trypanosoma brucei ERB1 G4 DNA assessed as change in melting temperature at 1 uM by FRET assay; assay type: nucleic-acid assay
Quadruplex DNA [5] = assay: Stabilization of 22AG G4 DNA (unknown origin) assessed as change in melting temperature at 1 uM by FRET assay; assay type: nucleic-acid assay
[6] = Selectivity index, ratio of IC50 for human MRC5 to IC50 for Trypanosoma brucei measured after 72 hrs by alamar blue assay; assay type: toxicity; settings: MRC5 cells, read-out: Ratio IC50
Leishmania major = assay: Antileishmanial activity against Leishmania major promastigotes MHOM/IL/80/Friedlin measured after 72 hrs by MTT assay; assay type: functional, organism-based
Trypanosoma brucei [7] = assay: Antitrypanosomal activity against Trypanosoma brucei; assay type: functional, organism-based
Quadruplex DNA [8] = assay: Stabilization of Trypanosoma brucei ERB1 G4 DNA assessed as change in melting temperature at 292 nm wavelength at 5 uM by CD spectroscopy; assay type: nucleic-acid assay
Quadruplex DNA [9] = assay: Stabilization of 22AG G4 DNA (unknown origin) assessed as change in melting temperature at 265 nm wavelength at 5 uM by CD spectroscopy; assay type: nucleic-acid assay
Quadruplex DNA [10] = assay: Stabilization of Trypanosoma brucei ERB1 G4 DNA assessed as change in melting temperature at 265 nm wavelength at 5 uM by CD spectroscopy; assay type: nucleic-acid assay
[11] = Drug uptake in Trypanosoma brucei at 4 to 37 degreeC at 5 uM after 30 to 120 mins by flow cytometry analysis; assay type: ADME; settings: time 30-120 min
Quadruplex DNA [12] = assay: Stabilization of 22AG G4 DNA (unknown origin) assessed as change in melting temperature at 292 nm wavelength at 5 uM by CD spectroscopy; assay type: nucleic-acid assay
[13] = Drug uptake in human MRC5 cells at 4 to 37 degreeC at 5 uM after 30 to 120 mins by flow cytometry analysis; assay type: ADME, cell-based; settings: mrc5, 5 µM, time 30-120 min
[14] = Selectivity index, ratio of IC50 for human MRC5 to IC50 for Trypanosoma brucei measured after 72 hrs by CellTiter-Glo luminescent assay; assay type: toxicity; settings: MRC5 cells, read-out: Ratio IC50
Trypanosoma brucei [15] = assay: Trypanocidal activity against bloodstream-stage Trypanosoma brucei measured after 72 hrs by CellTiter-Glo luminescent assay; assay type: functional, organism-based
[16] = Drug localization in human MRC5 cells cytoplasm at 37 degreeC at 5 uM after 30 mins by DAPI staining based fluorescence microscopy analysis; assay type: ADME, subcellular; settings: mrc5, 0.5 h
[17] = Drug localization in Trypanosoma brucei at 5 uM after 120 mins by DAPI staining based fluorescence microscopy analysis; assay type: ADME; settings: 2 h
[18] = Drug localization in Trypanosoma brucei kinetoplast at 37 degreeC at 5 uM after 30 mins by DAPI staining based fluorescence microscopy analysis; assay type: ADME, subcellular; settings: 0.5 h
[19] = Drug localization in human MRC5 cells nucleus at 37 degreeC at 5 uM after 30 mins by DAPI staining based fluorescence microscopy analysis; assay type: ADME, subcellular; settings: mrc5, 0.5 h
[20] = Drug localization in Trypanosoma brucei nucleus at 37 degreeC at 5 uM after 30 mins by DAPI staining based fluorescence microscopy analysis; assay type: ADME, subcellular; settings: 0.5 h

SMILES	selectivity ratio at 72 h [1]	IC50 at 72 h [2]	IC50 (Trypanosoma brucei [3])	ΔTm (Quadruplex DNA [4])	ΔTm (Quadruplex DNA [5])	selectivity ratio at 72 h [6]	IC50 (Leishmania major)	also measured
O=C1c2ccc3c4c(c(NCCOCCO)cc(c24)C(=O)N1CCOCCO)C(=O)N(CCOCCO)C3=O	> 6.98	> 100000 nM	9500 nM	2.9 °C	-1.4 °C	> 10.5	14300 nM	
CN(C)CCCNc1cc2c3c(c(NCCCN(C)C)cc4c3c1C(=O)N(CCCN(C)C)C4=O)C(=O)N(CCCN(C)C)C2=O	0.18	2100 nM	54 nM	> 30 °C	> 30 °C	38.9	11800 nM	
N=C(N)c1ccc(OCCCCCOc2ccc(C(=N)N)cc2)cc1 [PENTAMIDINE]								IC50 (Trypanosoma brucei [7]): 0.2 nM
COCCOCCNc1cc2c3c(ccc4c3c1C(=O)N(CCCN(C)C)C4=O)C(=O)N(CCCN(C)C)C2=O	1.1	5000 nM	61 nM	9.7 °C	4.4 °C	80.6	4420 nM	
O=C1c2cc(NCCOCCO)c3c4c(cc(NCCOCCO)c(c24)C(=O)N1CCOCCO)C(=O)N(CCOCCO)C3=O		> 100000 nM	42700 nM	3.5 °C	0.3 °C	> 2.3	> 100000 nM	
CN(C)CCCNc1cc2c3c(c(N(C)C)cc4c3c1C(=O)N(CCCN(C)C)C4=O)C(=O)N(CCCN(C)C)C2=O	2.6	7700 nM	21 nM	3.6 °C	1.9 °C	367	2960 nM	ΔTm (Quadruplex DNA [8]): 2.7 °C; ΔTm (Quadruplex DNA [9]): 8.9 °C; ΔTm (Quadruplex DNA [10]): 2.4 °C; Drug uptake [11]: 0%; ΔTm (Quadruplex DNA [12]): -1.4 °C
CN(C)CCCN1C(=O)c2ccc3c4c(c(NCc5cn([C@@H]6O[C@H](CO)[C@@H](O)[C@H](O)[C@H]6O)nn5)cc(c24)C1=O)C(=O)N(CCCN(C)C)C3=O	4.7			11 °C	10 °C	47.9		
CN(C)CCCN1C(=O)c2ccc3c4c(c(NCCCO)cc(c24)C1=O)C(=O)N(CCCN(C)C)C3=O	2	5000 nM	57 nM	12 °C	5 °C	87.7	2490 nM	
CN(C)CCCn1c(=O)c2ccc3c(=O)n(CCCN(C)C)c(=O)c4c5[nH]c6ccccc6[nH]c5c(c1=O)c2c34	11.5	23 nM	0.26 nM	> 30 °C	8.5 °C	88	2 nM	ΔTm (Quadruplex DNA [8]): 23 °C; ΔTm (Quadruplex DNA [9]): 6.7 °C; ΔTm (Quadruplex DNA [10]): 25.9 °C; Drug uptake [13]: Active; Drug uptake [11]: 20%; selectivity ratio at 72 h [14]: 328; ΔTm (Quadruplex DNA [12]): 3 °C; IC50 (Trypanosoma brucei [15]): 0.07 nM
O=C1c2ccc3c4c(ccc(c24)C(=O)N1CCOCCO)C(=O)N(CCOCCO)C3=O	3.85	14500 nM	2500 nM	1.3 °C	-2.2 °C	5.8	3760 nM	
O=c1c2ccc3c(=O)n(CCOCCO)c(=O)c4c5[nH]c6ccccc6[nH]c5c(c(=O)n1CCOCCO)c2c34	< 0.018	1800 nM	290 nM	2.1 °C	-2.2 °C	6.2	> 100000 nM	selectivity ratio at 72 h [14]: 13.8; IC50 (Trypanosoma brucei [15]): 130 nM
CN(C)CCCNc1cc2c3c(ccc4c3c1C(=O)N(CCCN(C)C)C4=O)C(=O)N(CCCN(C)C)C2=O		> 100000 nM	21500 nM	19 °C	9.6 °C	> 4.6	> 100000 nM	
CN(C)CCCN1C(=O)c2cc(NCCOCCOCCNc3cc4c5c(c(Br)cc6c5c3C(=O)N(CCCCCC(=O)O)C6=O)C(=O)N(CCCCCC(=O)O)C4=O)c3c4c(cc(Br)c(c24)C1=O)C(=O)N(CCCN(C)C)C3=O	< 0.14	14000 nM	550 nM	7.1 °C	3.8 °C	25	> 100000 nM	ΔTm (Quadruplex DNA [8]): 3.2 °C; ΔTm (Quadruplex DNA [9]): 4.9 °C; ΔTm (Quadruplex DNA [10]): 5.2 °C; ΔTm (Quadruplex DNA [12]): -2.5 °C
CCCNc1cc2c3c(ccc4c3c1C(=O)N(CCCN(C)C)C4=O)C(=O)N(CCCN(C)C)C2=O	10.6			12 °C	> 30 °C	40		
CN(C)CCCN1C(=O)c2ccc3c4c(c(NCCCCCCCNc5cc6c7c(ccc8c7c5C(=O)N(CCCN(C)C)C8=O)C(=O)N(CCCN(C)C)C6=O)cc(c24)C1=O)C(=O)N(CCCN(C)C)C3=O	0.002	62 nM	15 nM	15 °C	> 30 °C	4	2590 nM	
CCCNC(=O)c1ccc2[nH]c3c([nH]c2c1)c1c(=O)n(CCCN(C)C)c(=O)c2ccc4c(=O)n(CCCN(C)C)c(=O)c3c4c21	0.12	38 nM	0.09 nM	> 30 °C	> 30 °C	422	310 nM	ΔTm (Quadruplex DNA [8]): 26 °C; ΔTm (Quadruplex DNA [9]): > 30 °C; Drug uptake [16]: Not Active; ΔTm (Quadruplex DNA [10]): 22.7 °C; Drug uptake [13]: Active; Drug uptake [11]: 20%; Drug uptake [17]: Active; selectivity ratio at 72 h [14]: 3450; ΔTm (Quadruplex DNA [12]): 14.8 °C; Drug uptake [18]: Not Active; IC50 (Trypanosoma brucei [15]): 0.011 nM; Drug uptake [19]: Active; Drug uptake [20]: Active
CN(C)CCCN1C(=O)c2ccc3c4c(c(NCc5cn(CCO[C@@H]6O[C@H](CO)[C@@H](O)[C@H](O)[C@H]6O)nn5)cc(c24)C1=O)C(=O)N(CCCN(C)C)C3=O	1.3			8.6 °C	2.7 °C	41.8		
CN(C)CCCNc1cc2c3c(c(NCCCCCCCNc4cc5c6c(ccc7c6c4C(=O)N(CCCN(C)C)C7=O)C(=O)N(CCCN(C)C)C5=O)cc4c3c1C(=O)N(CCCN(C)C)C4=O)C(=O)N(CCCN(C)C)C2=O	< 0.66	66300 nM	8500 nM	> 30 °C	18.3 °C	7.8	> 100000 nM	
CN(C)CCCN1C(=O)c2ccc3c4c(c(N5CCCCC5)cc(c24)C1=O)C(=O)N(CCCN(C)C)C3=O	15.3	2600 nM	32 nM	7.4 °C	2.3 °C	81.3	170 nM	
